Measurements: patent US9067900B2, “Diaminophenothiazine compounds, a method for preparing same and uses thereof” (PHARMA HYDRO DEVELOPMENT—P.H.D., priority 2007, dated 2015)

Tests used:
[1] = system: Legionella pneumophila subsp pneumophila CIP 103 854; assay type: cell-based; conditions: 100 mg/l in distilled water, contact time 15 to 30 mn; dichlorhydrate solution
[2] = system: Pseudomonas aeruginosa CIP 103 467; experiment: Biocidal activity test according to EN standards (EN 1040, EN 1275); assay type: cell-based; conditions: 50 to 100 mg/l in distilled water, contact time 15 to 30 mn
[3] = system: Escherichia coli CIP 54 127; experiment: as above; assay type: cell-based; conditions: 50 to 100 mg/l in distilled water, contact time 15 to 30 mn
[4] = system: Candida albicans IP 48.72; experiment: as above; assay type: cell-based; conditions: under light
Experimental: The biocidal tests were carried out according to Directive NF EN 1040. Tests were conducted at the same time in the dark and under white light, corresponding to a moderate sunshine (400 KJ/M2) using an ordinary incandescent or halogen lamp. Some tests may be carried out up to 1.3 mW/Cm^2 […] The color change is all the more fast that the solution is illuminated under white light. The tests are performed in sterile glass flasks according to disinfection test standards. Illumination is a sun light illumination or an artificial light illumination and is compared with tests carried out in the dark (glass material is wrapped with aluminium foil). Biocidal activity tests are carried out according to EN standards, for example EN 1040, EN 1275, on reference microbial strains registered under ATCC and CIP, and validated by an accredited laboratory. […] These tests validate as biocide agents as defined by the European pharmacopoeia if the infectious titer reduction is higher than 5. Tests are carried out under white light versus a control in the dark. In all cases, white light accelerates the biocidal phenomenon, for example the biocidal activity under light requires a 15 min-contact time, as opposed to 30 mn in the dark. It should be noted that the DAP 2,8 series may have a “range effect”, that is to say there is a concentration range that is more efficient as compared to higher concentrations.

[5] = system: albino rabbits; experiment: Skin irritation/corrosion, OCDE 404 classification; assay type: in vivo; conditions: 100 mg/l to 1000 mg/l
[6] = system: albino rabbits; experiment: Eye irritation/corrosion, OCDE 405 classification; assay type: in vivo; conditions: 100 mg/l to 1000 mg/l

In the case of CN(C)c1ccc2c(c1)Nc1cc(N(C)C)ccc1S2 [Example 1, N,N,N′,N′-tetramethyl-10H-phenothiazine-2,8-diamine], the “Infectious titer reduction (log)” value [1] is reported as over 5.5 log, the “Infectious titer reduction (log)” value [2] is reported as over 5.5 log and the “Infectious titer reduction (log)” value [3] is reported as over 5.5 log. For the same compound, the “Infectious titer reduction (log)” value ([4]; 100 mg/l in distilled water, contact time 30 mn) was 3.2 log, the Infectious titer reduction ([4]; 250 or 500 mg/l, 30 mn of contact) was under 2.8 log and the “irritant or corrosive activity, skin” value [5] was “non-irritant”. For the same compound, the “irritant or corrosive activity, eyes” value [6] was “non-irritant”.

Work on CCCN(CCC)c1ccc2c(c1)Nc1cc(N3CCN(C)CC3)ccc1S2 [Example 8, [8-(4-Methyl-piperazin-1-yl)-10H-phenothiazin-2-yl]-dipropylamine] yielded a melting point of 122 to 124 °C.

Work on CCCCN(CCCC)c1ccc2c(c1)Nc1cc(N3CCN(C)CC3)ccc1S2 [Example 11, N,N-Dibutyl-[8-(4-methylpiperazin-1-yl)-10H-phenothiazin-2-yl]amine] yielded a melting point of 150 to 152 °C.

In the case of CCCNc1ccc2c(c1)Nc1cc(N(C)C)ccc1S2 [Example 13, N,N-Dimethyl-N′-propyl-10H-phenothiazine-2,8-diamine], the melting point is reported as 158 to 160 °C.
